Read-outs that look alike come from different tables or passages of the source.
How the values were obtained:
STK35 = STK35 (Homo sapiens, UniProt Q8TDR2); settings: 1 µM; binder
MEK1 = MEK1 (Homo sapiens, UniProt Q02750); settings: 1 µM; binder
PKN1 = PKN1 (Homo sapiens, UniProt Q16512); settings: 1 µM; binder
JAK1 = JAK1 (Homo sapiens, UniProt P23458); settings: binder
TTK = TTK (Homo sapiens, UniProt P33981); settings: 1 µM; binder
CDK2 = CDK2 (Homo sapiens, UniProt P24941); settings: 1 µM; binder
AAK1 = AAK1 (Homo sapiens, UniProt Q2M2I8); settings: 1 µM; binder
AMPK-alpha2 = AMPK-alpha2 (Homo sapiens, UniProt P54646); settings: 1 µM; binder
TIE1 = TIE1 (Homo sapiens, UniProt P35590); settings: 1 µM; binder
MAPKAPK2 = MAPKAPK2 (Homo sapiens, UniProt P49137); settings: 1 µM; binder
Chain of MAPKAPK2 (P49137 whole entry): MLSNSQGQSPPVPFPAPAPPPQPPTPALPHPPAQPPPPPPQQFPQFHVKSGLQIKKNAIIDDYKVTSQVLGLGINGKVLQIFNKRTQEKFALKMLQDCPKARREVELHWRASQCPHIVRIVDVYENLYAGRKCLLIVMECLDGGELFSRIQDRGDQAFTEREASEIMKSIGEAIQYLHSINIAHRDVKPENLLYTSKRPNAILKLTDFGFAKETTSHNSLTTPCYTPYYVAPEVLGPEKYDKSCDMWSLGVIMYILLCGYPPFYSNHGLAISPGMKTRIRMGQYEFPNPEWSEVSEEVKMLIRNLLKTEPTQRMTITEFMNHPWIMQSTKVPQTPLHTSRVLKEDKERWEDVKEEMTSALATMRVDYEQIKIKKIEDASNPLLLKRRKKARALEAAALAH

AMPK-alpha1 = AMPK-alpha1 (Homo sapiens, UniProt Q13131); settings: 1 µM; binder
Chain of AMPK-alpha1 (Q13131 whole entry): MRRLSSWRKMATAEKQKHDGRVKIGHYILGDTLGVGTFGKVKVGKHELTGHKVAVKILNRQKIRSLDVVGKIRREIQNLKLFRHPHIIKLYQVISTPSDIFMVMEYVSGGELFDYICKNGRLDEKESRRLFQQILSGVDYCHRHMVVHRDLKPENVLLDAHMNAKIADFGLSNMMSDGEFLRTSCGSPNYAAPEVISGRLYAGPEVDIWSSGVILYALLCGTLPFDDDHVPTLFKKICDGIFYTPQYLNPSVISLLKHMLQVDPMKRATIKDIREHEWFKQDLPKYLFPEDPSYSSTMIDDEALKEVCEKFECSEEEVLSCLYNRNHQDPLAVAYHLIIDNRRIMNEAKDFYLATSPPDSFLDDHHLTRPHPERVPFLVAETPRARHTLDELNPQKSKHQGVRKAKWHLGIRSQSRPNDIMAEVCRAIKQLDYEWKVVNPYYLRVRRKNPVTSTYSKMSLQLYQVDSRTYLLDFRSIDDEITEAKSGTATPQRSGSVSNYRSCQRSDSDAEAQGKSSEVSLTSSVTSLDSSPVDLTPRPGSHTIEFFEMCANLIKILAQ

IKK-beta = IKK-beta (Homo sapiens, UniProt O14920); settings: 1 µM; binder
TNK1 = TNK1 (Homo sapiens, UniProt Q13470); settings: 1 µM; binder
AKT3 = AKT3 (Homo sapiens, UniProt Q9Y243); settings: 1 µM; binder
DAPK2 = DAPK2 (Homo sapiens, UniProt Q9UIK4); settings: 1 µM; binder
ERBB3 = ERBB3 (Homo sapiens, UniProt P21860); settings: 1 µM; binder
RET = RET (Homo sapiens, UniProt P07949); settings: 1 µM; binder
GRK1 = GRK1 (Homo sapiens, UniProt Q15835); settings: 1 µM; binder
HPK1 = HPK1 (Homo sapiens, UniProt Q92918); settings: 1 µM; binder
TYK2 = TYK2 (Homo sapiens, UniProt P29597); settings: binder
Chain of TYK2 (P29597 whole entry): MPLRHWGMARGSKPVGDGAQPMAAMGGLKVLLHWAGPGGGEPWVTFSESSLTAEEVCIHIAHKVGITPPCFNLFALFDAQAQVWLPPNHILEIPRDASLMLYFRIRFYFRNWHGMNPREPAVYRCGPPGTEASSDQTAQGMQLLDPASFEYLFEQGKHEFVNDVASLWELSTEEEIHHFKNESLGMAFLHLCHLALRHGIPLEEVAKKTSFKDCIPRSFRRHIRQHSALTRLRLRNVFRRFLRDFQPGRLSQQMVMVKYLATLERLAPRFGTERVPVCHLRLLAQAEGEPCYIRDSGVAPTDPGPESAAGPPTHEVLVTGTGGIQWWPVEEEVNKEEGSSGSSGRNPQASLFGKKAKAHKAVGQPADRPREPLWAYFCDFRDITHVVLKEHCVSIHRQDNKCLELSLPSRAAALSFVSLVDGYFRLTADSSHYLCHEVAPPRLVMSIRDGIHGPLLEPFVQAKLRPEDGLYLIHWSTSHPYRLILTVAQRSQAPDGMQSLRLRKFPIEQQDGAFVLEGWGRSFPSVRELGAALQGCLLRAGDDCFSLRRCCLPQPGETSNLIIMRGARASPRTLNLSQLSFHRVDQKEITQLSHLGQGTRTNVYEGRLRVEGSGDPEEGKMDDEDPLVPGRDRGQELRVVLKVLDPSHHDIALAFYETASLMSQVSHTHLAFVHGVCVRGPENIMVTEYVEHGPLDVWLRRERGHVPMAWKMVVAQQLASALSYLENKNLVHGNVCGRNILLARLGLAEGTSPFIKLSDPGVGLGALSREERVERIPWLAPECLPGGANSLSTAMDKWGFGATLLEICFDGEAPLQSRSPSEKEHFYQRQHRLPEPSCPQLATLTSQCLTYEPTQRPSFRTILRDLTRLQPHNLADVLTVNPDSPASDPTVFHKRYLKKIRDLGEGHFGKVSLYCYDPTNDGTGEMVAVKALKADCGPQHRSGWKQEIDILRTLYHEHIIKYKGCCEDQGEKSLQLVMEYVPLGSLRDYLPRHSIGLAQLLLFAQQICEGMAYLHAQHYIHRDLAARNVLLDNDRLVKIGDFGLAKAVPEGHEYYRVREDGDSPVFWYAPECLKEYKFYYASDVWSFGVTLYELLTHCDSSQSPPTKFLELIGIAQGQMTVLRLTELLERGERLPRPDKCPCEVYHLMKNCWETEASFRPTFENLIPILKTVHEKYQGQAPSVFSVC

p38-delta = p38-delta (Homo sapiens, UniProt O15264); settings: 1 µM; binder
MYLK3 = MYLK3 (Homo sapiens, UniProt Q32MK0); settings: 1 µM; binder
CDKL3 = CDKL3 (Homo sapiens, UniProt Q8IVW4); settings: 1 µM; binder
ASK2 = ASK2 (Homo sapiens, UniProt O95382); settings: 1 µM; binder
MAP3K4 = MAP3K4 (Homo sapiens, UniProt Q9Y6R4); settings: 1 µM; binder
CASK = CASK (Homo sapiens, UniProt O14936); settings: 1 µM; binder
PRKCQ = PRKCQ (Homo sapiens, UniProt Q04759); settings: 1 µM; binder
PRKD2 = PRKD2 (Homo sapiens, UniProt Q9BZL6); settings: 1 µM; binder
MET(Y1235D) = MET(Y1235D) (Homo sapiens, UniProt P08581, Y1235D); settings: 1 µM; binder
TAOK3 = TAOK3 (Homo sapiens, UniProt Q9H2K8); settings: 1 µM; binder

Chain of JAK1 (P23458 whole entry): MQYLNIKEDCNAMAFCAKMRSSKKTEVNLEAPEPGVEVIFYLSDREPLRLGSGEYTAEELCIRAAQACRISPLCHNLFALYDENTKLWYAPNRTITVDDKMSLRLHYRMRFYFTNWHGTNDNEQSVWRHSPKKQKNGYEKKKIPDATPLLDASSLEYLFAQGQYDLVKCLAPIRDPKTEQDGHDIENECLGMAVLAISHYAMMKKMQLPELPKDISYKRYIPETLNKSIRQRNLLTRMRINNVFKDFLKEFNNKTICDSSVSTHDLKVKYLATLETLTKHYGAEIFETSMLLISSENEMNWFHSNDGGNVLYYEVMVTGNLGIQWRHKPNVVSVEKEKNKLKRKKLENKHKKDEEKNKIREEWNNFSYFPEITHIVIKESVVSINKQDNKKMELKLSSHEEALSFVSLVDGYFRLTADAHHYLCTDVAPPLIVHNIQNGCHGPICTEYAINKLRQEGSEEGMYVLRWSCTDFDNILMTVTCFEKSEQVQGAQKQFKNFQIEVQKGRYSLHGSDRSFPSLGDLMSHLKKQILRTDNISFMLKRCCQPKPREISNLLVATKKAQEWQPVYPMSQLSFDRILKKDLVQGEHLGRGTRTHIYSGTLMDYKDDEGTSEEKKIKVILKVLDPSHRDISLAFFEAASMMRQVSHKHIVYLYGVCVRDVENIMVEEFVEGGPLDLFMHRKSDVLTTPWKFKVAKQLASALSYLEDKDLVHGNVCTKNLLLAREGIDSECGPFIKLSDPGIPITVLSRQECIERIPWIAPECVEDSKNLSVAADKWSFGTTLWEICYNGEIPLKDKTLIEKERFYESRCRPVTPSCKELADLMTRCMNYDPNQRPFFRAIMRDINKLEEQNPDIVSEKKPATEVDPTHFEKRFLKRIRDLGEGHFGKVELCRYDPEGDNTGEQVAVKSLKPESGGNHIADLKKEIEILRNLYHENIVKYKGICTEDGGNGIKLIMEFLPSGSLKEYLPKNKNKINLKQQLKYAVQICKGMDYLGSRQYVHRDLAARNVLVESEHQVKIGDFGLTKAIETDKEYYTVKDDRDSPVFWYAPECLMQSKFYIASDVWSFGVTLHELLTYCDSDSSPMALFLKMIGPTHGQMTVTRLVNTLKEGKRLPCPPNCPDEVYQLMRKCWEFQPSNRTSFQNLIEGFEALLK
Chain of TTK (P33981 whole entry): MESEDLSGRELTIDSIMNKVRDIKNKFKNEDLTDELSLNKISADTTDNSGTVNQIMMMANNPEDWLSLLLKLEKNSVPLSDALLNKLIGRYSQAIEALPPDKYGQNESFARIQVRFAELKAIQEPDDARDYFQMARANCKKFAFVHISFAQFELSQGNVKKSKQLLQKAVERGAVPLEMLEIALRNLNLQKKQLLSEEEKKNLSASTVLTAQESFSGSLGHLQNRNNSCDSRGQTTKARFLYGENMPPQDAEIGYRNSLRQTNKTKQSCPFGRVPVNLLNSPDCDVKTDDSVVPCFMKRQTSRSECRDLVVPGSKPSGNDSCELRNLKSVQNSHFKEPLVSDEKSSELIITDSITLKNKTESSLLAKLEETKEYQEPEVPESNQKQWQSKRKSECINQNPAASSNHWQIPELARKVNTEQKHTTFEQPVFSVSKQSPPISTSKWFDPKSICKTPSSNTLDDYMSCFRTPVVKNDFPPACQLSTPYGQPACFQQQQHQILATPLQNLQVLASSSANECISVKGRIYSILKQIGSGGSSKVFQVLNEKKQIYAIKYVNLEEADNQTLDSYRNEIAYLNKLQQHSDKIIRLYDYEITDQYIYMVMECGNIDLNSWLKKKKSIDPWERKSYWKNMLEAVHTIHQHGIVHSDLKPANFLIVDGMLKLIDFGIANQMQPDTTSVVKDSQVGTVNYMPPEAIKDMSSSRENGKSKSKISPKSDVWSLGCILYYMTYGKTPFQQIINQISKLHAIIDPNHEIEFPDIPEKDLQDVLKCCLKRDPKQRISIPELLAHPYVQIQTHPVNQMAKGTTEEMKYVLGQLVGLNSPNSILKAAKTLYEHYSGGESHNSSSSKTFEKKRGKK
Chain of PKN1 (Q16512 whole entry): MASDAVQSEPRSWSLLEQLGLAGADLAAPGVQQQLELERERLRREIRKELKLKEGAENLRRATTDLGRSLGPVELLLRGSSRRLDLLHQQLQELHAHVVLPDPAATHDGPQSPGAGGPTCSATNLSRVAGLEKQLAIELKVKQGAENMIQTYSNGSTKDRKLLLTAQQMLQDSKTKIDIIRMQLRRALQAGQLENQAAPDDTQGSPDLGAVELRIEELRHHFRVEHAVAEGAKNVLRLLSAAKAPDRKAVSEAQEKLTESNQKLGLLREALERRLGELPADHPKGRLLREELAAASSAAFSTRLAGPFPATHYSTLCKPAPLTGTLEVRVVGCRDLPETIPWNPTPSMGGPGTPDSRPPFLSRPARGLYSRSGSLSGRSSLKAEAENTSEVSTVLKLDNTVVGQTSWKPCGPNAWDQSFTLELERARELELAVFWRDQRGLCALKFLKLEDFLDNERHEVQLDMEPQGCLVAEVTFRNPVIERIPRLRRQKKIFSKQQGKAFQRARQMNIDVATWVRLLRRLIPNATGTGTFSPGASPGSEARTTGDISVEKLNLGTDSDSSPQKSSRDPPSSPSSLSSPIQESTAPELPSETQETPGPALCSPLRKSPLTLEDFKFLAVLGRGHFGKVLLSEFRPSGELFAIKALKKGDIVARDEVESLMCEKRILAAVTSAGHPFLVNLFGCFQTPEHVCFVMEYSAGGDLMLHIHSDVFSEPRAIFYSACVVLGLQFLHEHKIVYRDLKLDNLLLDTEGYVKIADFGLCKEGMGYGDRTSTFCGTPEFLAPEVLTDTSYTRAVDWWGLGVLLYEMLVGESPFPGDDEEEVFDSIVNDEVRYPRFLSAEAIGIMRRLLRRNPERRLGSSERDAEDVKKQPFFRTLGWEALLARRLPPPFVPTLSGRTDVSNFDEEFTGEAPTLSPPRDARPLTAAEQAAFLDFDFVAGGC

For `CNc1ncc2cc(-c3ccc(-c4cccc(C)n4)cc3Cl)c(=O)n(C[C@H]3OC[C@H](N)CO3)c2n1` [compound 6, G-5555], the “Percent Control” value (STK35) was 100%, the “Percent Control” value (MEK1) was 1% and the “Percent Control” value (PKN1) was 92%. The “Percent Control” value (JAK1; JH1 domain catalytic) was 100%, the “Percent Control” value (JAK1; JH2 domain pseudokinase, 1 µM) was 92% and the “Percent Control” value (TTK) was 97%. The “Percent Control” value (CDK2) was 100%, the “Percent Control” value (AAK1) was 100% and the “Percent Control” value (AMPK-alpha2) was 47%. For the same compound, the “Percent Control” value (TIE1) was 94%, the “Percent Control” value (MAPKAPK2) was 100% and the “Percent Control” value (AMPK-alpha1) was 40%. For the same compound, the “Percent Control” value (IKK-beta) was 80%, the “Percent Control” value (TNK1) was 100% and the “Percent Control” value (AKT3) was 48%. For the same compound, the “Percent Control” value (DAPK2) was 100%, the “Percent Control” value (ERBB3) was 86% and the “Percent Control” value (RET) was 94%. For the same compound, the “Percent Control” value (GRK1) was 100%, the “Percent Control” value (HPK1) was 26% and the “Percent Control” value (TYK2; JH1 domain catalytic) was 74%. For the same compound, the “Percent Control” value (TYK2; JH2 domain pseudokinase, 1 µM) was 98%, the “Percent Control” value (p38-delta) was 100% and the “Percent Control” value (MYLK3) was 100%. For the same compound, the “Percent Control” value (CDKL3) was 100%, the “Percent Control” value (ASK2) was 70% and the “Percent Control” value (MAP3K4) was 52%. The “Percent Control” value (CASK) was 100%, the “Percent Control” value (PRKCQ) was 55% and the “Percent Control” value (PRKD2) was 27%. The “Percent Control” value (MET(Y1235D)) was 93% and the “Percent Control” value (TAOK3) was 100%.

— article doi:10.1101/2021.04.08.439011v1 (biorxiv, 2021)
